Test results taken from patent US8889676B2, “3-ureidoisoquinolin-8-yl derivatives” (Actelion Pharmaceuticals Ltd., priority 2011, dated 2014).
Converted amounts (≈) assume the structure as drawn.

Each compound was assayed on S. pneumoniae ATCC 49619 (assay: Minimal inhibitory concentration (MIC) by broth microdilution (CLSI M7-A7)). Settings: Streptococcus pneumoniae, ATCC49619; cation-adjusted Mueller Hinton Broth supplemented with 3% (v/v) lysed horse blood; microdilution method.
Assay type: cell-based, Streptococcus pneumoniae
Procedure, shortened: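 Broth microdilution per CLSI M7-A7 in cation-adjusted Mueller-Hinton broth with 3% (v/v) lysed horse blood for S. pneumoniae. MIC in mg/l.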

| SMILES | MIC [µg/mL] |
| --- | --- |
| CCNC(=O)Nc1cc2c(-c3cc(F)ncc3F)ccc(CNC(=O)OC)c2cn1.Cl [Example 191, [5-(2,5-difluoro-pyridin-4-yl)-3-(3-ethyl-ureido)-isoquinolin-8-ylmethyl]-carbamic acid methyl ester hydrochloride] | 2 |
| CCNC(=O)Nc1cc2c(-c3ccnc(CCCO)c3)ccc(CNC(=O)OC)c2cn1 [Example 192, {3-(3-ethyl-ureido)-5-[2-(3-hydroxy-propyl)-pyridin-4-yl]-isoquinolin-8-ylmethyl}-carbamic acid methyl ester] | 2 (≈ 4.57 µM) |
| CCNC(=O)Nc1cc2c(-c3ccnc(CC(=O)NC)c3)ccc(CNC(=O)OC)c2cn1 [Example 193, [3-(3-ethyl-ureido)-5-(2-(methylcarbamoyl-methyl)-pyridin-4-yl)-isoquinolin-8-ylmethyl]-carbamic acid methyl ester] | 8 (≈ 17.8 µM) |
| CCNC(=O)Nc1cc2c(-c3ccnc(CC(=O)N(C)C)c3)ccc(CNC(=O)OC)c2cn1 [Example 194, [5-[2-(dimethylcarbamoyl-methyl)-pyridin-4-yl]-3-(3-ethyl-ureido)-isoquinolin-8-ylmethyl]-carbamic acid methyl ester] | 4 (≈ 8.61 µM) |
| CCNC(=O)Nc1cc2c(-c3ccnc(CCC(=O)NC)c3)ccc(CNC(=O)OC)c2cn1 [Example 195, {3-(3-ethyl-ureido)-5-[2-(2-methylcarbamoyl-ethyl)-pyridin-4-yl]-isoquinolin-8-ylmethyl}-carbamic acid methyl ester] | 4 (≈ 8.61 µM) |
| CCNC(=O)Nc1cc2c(-c3ccnc(CCC(=O)N(C)C)c3)ccc(CNC(=O)OC)c2cn1 [Example 196, [5-[2-(2-dimethylcarbamoyl-ethyl)-pyridin-4-yl]-3-(3-ethyl-ureido)-isoquinolin-8-ylmethyl]-carbamic acid methyl ester] | 4 (≈ 8.36 µM) |
| CCNC(=O)Nc1cc2c(-c3ccnc(C#N)c3)ccc(CNC(=O)OC)c2cn1 [Example 197, [5-(2-cyano-pyridin-4-yl)-3-(3-ethyl-ureido)-isoquinolin-8-ylmethyl]-carbamic acid methyl ester] | 2 (≈ 4.95 µM) |
